Structures are written as SMILES.

The target of this assay is SOX2 (Homo sapiens, UniProt P48431). Nature of the assay: competitive EMSA. In kind it is binding. The note with it: 300 uM compound; pH 7.5; competes with DNA; off-target control.
Sequence of SOX2 (P48431 whole entry): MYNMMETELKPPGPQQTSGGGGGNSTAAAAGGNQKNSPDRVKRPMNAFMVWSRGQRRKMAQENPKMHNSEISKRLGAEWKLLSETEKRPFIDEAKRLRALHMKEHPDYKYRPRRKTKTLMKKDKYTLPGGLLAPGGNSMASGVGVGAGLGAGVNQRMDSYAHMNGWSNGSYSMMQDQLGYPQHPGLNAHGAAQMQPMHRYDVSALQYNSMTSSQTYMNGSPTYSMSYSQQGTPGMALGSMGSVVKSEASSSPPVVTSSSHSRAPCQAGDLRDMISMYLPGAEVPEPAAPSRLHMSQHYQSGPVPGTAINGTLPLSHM

For the compound `Cc1cc2nc(-c3cccc(NC(=O)c4ccc(C)c([N+](=O)[O-])c4)c3)oc2cc1C` [A, Compound A], the “competitive EMSA (loss of shifted biotin-DNA probe)” value was “SOX2 was competed by Compound A only”.
